Experimental data as given in patent US7153494B2, “Dibenzoylmethane sunscreen compositions photostabilized with amphiphilic block copolymers” (L'Oreal, priority 2002, dated 2006).

Assay: Photostability of oily Parsol 1789/block copolymer mixture as a thin coat on a glass plate, xenon lamp irradiation, absorption spectrophotometry
Type: physicochemical
Settings: mixture with Tegomer SE-1010; thin coat about 10 microns on glass plate, in presence of oxygen; UV-A 22 J/cm^2, 20 minutes
Procedure: The Parsol® 1789 was dispersed in the Tegomer SE-1010 with heating at 40° C. for 60 minutes. The mixture was allowed to cool to room temperature. The oily mixture was ready for use.
The oily mixture was evaluated in the form of a thin coat of about 10 microns deposited on a glass plate (microscope slide), in the presence of oxygen.
An irradiation was then performed, using an Ostram-Centra Uvimeter equipped with a xenon lamp, under the following conditions: • Energy of the UV-A lamp: 22 J/cm^2 • Irradiation time of the simulator=20 minutes
These conditions correspond to about one hour of solar UV-A sunshine.
The photodegradation was monitored by absorption spectrophotometry. The following results were obtained: • 1) The mixture was able to form a film and the quality of the film was not impaired by the irradiation. • 2) 100% of the Parsol® 1789 was recovered after this exposure.

- Parsol 1789 recovered after exposure: 100%
Compound: COc1ccc(C(=O)CC(=O)c2ccc(C(C)(C)C)cc2)cc1 [Parsol® 1789, 4-(tert-butyl)-4′-methoxydibenzoylmethane]
